We go through 1 molecule from patent US9084904B2, “Composition for external application” (OTSUKA PHARMACEUTICAL CO., LTD., priority 2008, dated 2015).

This experiment concerns JB6 CL 41-5A Cell Line, mouse epidermis. In words: Influence of glucose on the intracellular ATP generation-promotion effect of AMP in cultured mouse epidermal cells (ATPlite luminescence). Type of experiment: cell-based. Particulars: AMP 1 mM, 2 h. The text has this: The following reports a test for examining the influence of glucose on the intracellular ATP generation-promotion effect given by AMP. Cultured mouse epidermal cells were used in the test.
Cells: JB6 CL 41-5A Cell Line, mouse epidermis
Culture medium: an MEM medium containing 5% FCS (Fetal Calf Serum)
MEM medium (Nacalai Tesque), Fetal calf serum (GIBCO) AMP: disodium adenosine monophosphate (Yamasa Corporation)
Glucose: D-glucose (Wako Pure Chemical Ind. Ltd.)
ATP measurement: “ATPlite” Luminescence Assay System (Perkin Elmer)
Microplate luminescence reader Anthos Lucy 1 (Aloka Co., Ltd.)
Cultured mouse epidermal cells were inoculated in a 96-well microplate in an amount of 5.8×10^3 cells per well. After two hours, the medium was replaced with another culture medium containing a test sample of a predetermined quantity. After another two hours, the medium was removed, and the amount of ATP was measured.
In the following experiment example, the content of glucose was 100 mg/dL, based on the fact that the normal fasting blood-sugar level of a living body is generally about 70 to 100 mg/dL.
Three concentrations (101, 110, 200 mg/dL) of glucose were added to a normal culture medium (containing 100 mg/dL of glucose) so as to examine how each concentration affects the ATP generation-promotion effect of AMP (1 mM). […] The addition of glucose with a concentration of 110 mg/dL increased ATP generation by 25%, based on the concentration of 100 mg/dL that corresponds to the normal fasting blood-sugar level.
Based on the result of Experiment Example 1, another experiment was performed as follows so as to confirm the influence of the glucose addition on the ATP generation-promotion effect of AMP by ensuring the increase of ATP generation by AMP (1 mM) when the glucose content is 101 mg/dL and 110 mg/dL, and ensuring the decrease of ATP generation by AMP (1 mM) when the glucose content is 200 mg/dL or higher.
Background: In ATP-based viability assays light output follows the ATP content of the culture.

Where [1] appears, read: Experiment Example 2, glucose 600 mg/dL.

The structures appear in SMILES notation. Bounds are passed on as bounds.

For `Nc1ncnc2c1ncn2[C@@H]1O[C@H](COP(=O)([O-])[O-])[C@@H](O)[C@H]1O.[Na+].[Na+]` [AMP, disodium adenosine monophosphate], the “increase of ATP generation” value is, setting by setting: (Experiment Example 1, glucose 110 mg/dL, based on 100 mg/dL glucose) 25%; (Experiment Example 2, glucose 101 mg/dL) at least 30%; (Experiment Example 2, glucose 110 mg/dL) at least 30%. Also, the ATP generation result was “lower than when the glucose content was 110 mg/dL and AMP was 1 mM” (Experiment Example 1, glucose 200 mg/dL); “ATP generation increased” (Experiment Example 1, glucose content increased from 101 to 110 mg/dL); “lower than when the glucose content was 100 mg/dL and AMP was 1 mM” (Experiment Example 2, glucose 200 mg/dL). In addition, the “ATP generation compared with AMP-free medium containing 100 mg/dL glucose” value under setting [1] is on record as “not significantly lower”. For the same molecule, under setting [1], the “ATP generation-promotion effect of AMP” value is given as “small”.
